For one compound, IC50 results are on record in patent US20250268894A1, “MACROCYCLE COMPOUNDS FOR THE TREATMENT OF CANCER” (Hoffmann-La Roche Inc., priority 2022, published 2025).

The subject of assay [1] is phosphorylation of ERK, KRAS G12D in AGS cells. The assay is described as follows: pERK inhibition assay, KRAS G12D in AGS cells. Type of assay: cell-based, human. The conditions noted are these: Homo sapiens, 4 hours. In a few lines: (§1)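 NCI-H358 (G12C), AGS (G12D) and SW620 (G12V) cells in RPMI-1640/10% FBS, plated overnight, then treated 4 h with compound (0.5% DMSO final). Fixed, methanol-permeabilized; phospho-ERK detected by in-cell ELISA (anti-pERK, HRP secondary, TMB, OD450). IC50 from 4-parameter sigmoidal fit.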

The target in assay [2] is KRAS G12V-BRAF complex (Homo sapiens (Human), UniProt P01116+P62937, G12V). Description: KRAS-BRAF with CYPA (500 nM) interaction assay (TR-FRET), G12V. The class given is biochemical. The procedure: Kras-BRAF with CYPA (500 nM) Interaction Assay In this example, TR-FRET was also used to measure the compound or compound-CYPA dependent disruption of the KRAS G12C-BRAF complex. This protocol was also used to measure disruption of KRAS G12D or KRAS G12V binding to BRAF by a compound of the invention, respectively. […] Compound was present in plate wells as a 16-point 3-fold dilution series starting at a final concentration of 10 μM and incubated for 3 hours. […] TR-FRET signal was read on a […] microplate reader (Ex320 nm, Em 665/615 nm). Compounds that facilitate disruption of the KRAS-BRAF complex were identified as those eliciting a decrease in the TR-FRET ratio relative to DMSO control wells.
Sequence of KRAS G12V-BRAF complex (P01116-2 other isoform, or with tags, fused parts or gaps G12V): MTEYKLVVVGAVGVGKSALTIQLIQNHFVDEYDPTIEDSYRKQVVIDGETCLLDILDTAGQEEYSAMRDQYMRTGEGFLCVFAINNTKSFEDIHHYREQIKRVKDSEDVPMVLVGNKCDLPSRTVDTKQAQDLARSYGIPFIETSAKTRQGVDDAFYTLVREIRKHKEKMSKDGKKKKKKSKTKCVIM
Sequence of KRAS G12V-BRAF complex (P62937 whole entry): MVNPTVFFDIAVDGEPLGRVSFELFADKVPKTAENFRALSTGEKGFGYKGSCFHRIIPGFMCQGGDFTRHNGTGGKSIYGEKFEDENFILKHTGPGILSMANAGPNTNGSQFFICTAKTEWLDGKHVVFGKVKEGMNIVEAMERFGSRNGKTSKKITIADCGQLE
Background: In TR-FRET formats the signal depends on donor and acceptor labels being close together.

The subject of assay [3] is Miapaca-2 KRAS G12C + T58I cells. The assay is described as follows: Stable KRAS mutant cell line viability assay (CellTiter-Glo), G12C + T58I. The class given is cell-based. The conditions noted are these: Homo sapiens, MIA PaCa-2, 72 h, Miapaca-2 mutant cells, 3 d. From the text: (§2) The aim of the study was to determine the potency and efficacy of compounds for cell proliferation using CellTiter-Glo® (CTG) Luminescent Cell Viability Assay (Promega Corp., Madison, WI). We cloned […] KRAS^G12C variant sequences with secondary mutations (V8A, V9Y, S17E, T58I, A59T, S65W, R68S, D69P, M72I, D92R, H95N, Y96D, Q99F, Q99W, Y96H, and F156L) into the Miapaca-2. Totally 14 stable Miapaca-2 mutant cell lines were established through lentivirus infection. For the cell viability assay, cells were dosed with compounds in a 9-point dose-response using a 4 fold dilution series at a top dose of 10 μM. KRAS mutant cells were maintained in DMEM+10% FBS+2.5% HI Horse serum+1% PS+1 μg/mL Puromycin and seeded into 96-well plates at 800-1,500 cells per well 24 h before compound addition and then incubated with compound for 3 d before assaying viability (CellTiter-Glo, Promega). Assays were performed in biological duplicates. Nonlinear regression curves were fitted using Xfit. IC50 (absolute IC50) is the dose at which the estimated viability is 50% relative to untreated wells.
On the technique in general: Cellular ATP, detected with luciferase, serves as a proxy for viable cell number.

For assay [4], the system named is Miapaca-2 KRAS G12C + D60P cells. The assay is described as follows: Stable KRAS mutant cell line viability assay (CellTiter-Glo), G12C + D60P. Type of assay: cell-based. To be noted: Homo sapiens, MIA PaCa-2, 72 h, Miapaca-2 mutant cells, 3 d.
Text: as §2

For assay [5], the system named is Miapaca-2 KRAS G12C + A59T cells. The assay is described as follows: Stable KRAS mutant cell line viability assay (CellTiter-Glo), G12C + A59T. The conditions noted are these: Homo sapiens, MIA PaCa-2, 72 h, Miapaca-2 mutant cells, 3 d. The class given is cell-based.
Text: as §2

Assay [6] relates to Miapaca-2 KRAS G12C + H95N cells. The assay is described as follows: Stable KRAS mutant cell line viability assay (CellTiter-Glo), G12C + H95N. Type of assay: cell-based. To be noted: Homo sapiens, MIA PaCa-2, 72 h, Miapaca-2 mutant cells, 3 d.
Text: as §2

The subject of assay [7] is Miapaca-2 KRAS G12C + R68S cells. The assay is described as follows: Stable KRAS mutant cell line viability assay (CellTiter-Glo), G12C + R68S. The conditions noted are these: Homo sapiens, MIA PaCa-2, 72 h, Miapaca-2 mutant cells, 3 d. The class given is cell-based.
Text: as §2

Assay [8] deals with Miapaca-2 KRAS G12C + S17E cells. Description: Stable KRAS mutant cell line viability assay (CellTiter-Glo), G12C + S17E. Type of assay: cell-based. The conditions noted are these: Homo sapiens, MIA PaCa-2, 72 h, Miapaca-2 mutant cells, 3 d.
Text: as §2

Assay [9] has as its system AGS cells (KRAS G12D). Description: Cell viability assay (Cell Counting Kit-8), KRAS G12D. Type of assay: cell-based. To be noted: Homo sapiens, 72 hrs. The gist of the method:
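Cells seeded overnight at 5,000/well (NCI-H358) or 2,000/well (AGS, SW620), then exposed to compound for 72 hrs at 0.5% DMSO final. CCK-8 read as OD450 minus OD650 after 2 hrs; IC50 from 4-parameter sigmoidal fit.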
(Tetrazolium assays rely on reduction of a dye to a coloured formazan, in cell work by metabolically active cells.)

Assay [10] has as its system Miapaca-2 KRAS G12C + D92R cells. The assay is described as follows: Stable KRAS mutant cell line viability assay (CellTiter-Glo), G12C + D92R. The conditions noted are these: Homo sapiens, MIA PaCa-2, 72 h, Miapaca-2 mutant cells, 3 d. Type of assay: cell-based.
Text: as §2

In assay [11] the test system is phosphorylation of ERK, KRAS G12V in SW620 cells. Description: pERK inhibition assay, KRAS G12V in SW620. The conditions noted are these: Homo sapiens, SW-620, SW620, 4 hours. Type of assay: cell-based, human. The gist of the method: as §1

A word on the IC50: it is the point on the concentration scale where inhibition reaches its midpoint. `CO[C@@H](C)c1ncc(N2CCN(CC(F)(F)F)CC2)cc1-c1c2c3cc(ccc3n1CC(F)(F)F)-c1csc(n1)C[C@H](NC(=O)[C@H](C(C)C)N(C)C(=O)N1CCOCC1)C(=O)N1CCC[C@H](N1)C(=O)OCC(C)(C)C2` (atropisomer, axis not shown; (M)) [Example 6]: the half-maximal inhibitory concentration (IC50) in assay [1] was determined as 3 nM; in assay [2], 61 nM; in assay [3], 7 nM; in [4], 8 nM; in assay [5] it was 11 nM; in assay [6], 5 nM. The IC50 in [7] worked out at 34 nM; in assay [8], 5 nM; in assay [9] it was 20 nM; in assay [10] it was 5 nM; in assay [11], 2 nM.
